The target of this experiment is T1, TNKS1 (Homo sapiens, UniProt O95271).
T1 sequence (O95271 1-1327): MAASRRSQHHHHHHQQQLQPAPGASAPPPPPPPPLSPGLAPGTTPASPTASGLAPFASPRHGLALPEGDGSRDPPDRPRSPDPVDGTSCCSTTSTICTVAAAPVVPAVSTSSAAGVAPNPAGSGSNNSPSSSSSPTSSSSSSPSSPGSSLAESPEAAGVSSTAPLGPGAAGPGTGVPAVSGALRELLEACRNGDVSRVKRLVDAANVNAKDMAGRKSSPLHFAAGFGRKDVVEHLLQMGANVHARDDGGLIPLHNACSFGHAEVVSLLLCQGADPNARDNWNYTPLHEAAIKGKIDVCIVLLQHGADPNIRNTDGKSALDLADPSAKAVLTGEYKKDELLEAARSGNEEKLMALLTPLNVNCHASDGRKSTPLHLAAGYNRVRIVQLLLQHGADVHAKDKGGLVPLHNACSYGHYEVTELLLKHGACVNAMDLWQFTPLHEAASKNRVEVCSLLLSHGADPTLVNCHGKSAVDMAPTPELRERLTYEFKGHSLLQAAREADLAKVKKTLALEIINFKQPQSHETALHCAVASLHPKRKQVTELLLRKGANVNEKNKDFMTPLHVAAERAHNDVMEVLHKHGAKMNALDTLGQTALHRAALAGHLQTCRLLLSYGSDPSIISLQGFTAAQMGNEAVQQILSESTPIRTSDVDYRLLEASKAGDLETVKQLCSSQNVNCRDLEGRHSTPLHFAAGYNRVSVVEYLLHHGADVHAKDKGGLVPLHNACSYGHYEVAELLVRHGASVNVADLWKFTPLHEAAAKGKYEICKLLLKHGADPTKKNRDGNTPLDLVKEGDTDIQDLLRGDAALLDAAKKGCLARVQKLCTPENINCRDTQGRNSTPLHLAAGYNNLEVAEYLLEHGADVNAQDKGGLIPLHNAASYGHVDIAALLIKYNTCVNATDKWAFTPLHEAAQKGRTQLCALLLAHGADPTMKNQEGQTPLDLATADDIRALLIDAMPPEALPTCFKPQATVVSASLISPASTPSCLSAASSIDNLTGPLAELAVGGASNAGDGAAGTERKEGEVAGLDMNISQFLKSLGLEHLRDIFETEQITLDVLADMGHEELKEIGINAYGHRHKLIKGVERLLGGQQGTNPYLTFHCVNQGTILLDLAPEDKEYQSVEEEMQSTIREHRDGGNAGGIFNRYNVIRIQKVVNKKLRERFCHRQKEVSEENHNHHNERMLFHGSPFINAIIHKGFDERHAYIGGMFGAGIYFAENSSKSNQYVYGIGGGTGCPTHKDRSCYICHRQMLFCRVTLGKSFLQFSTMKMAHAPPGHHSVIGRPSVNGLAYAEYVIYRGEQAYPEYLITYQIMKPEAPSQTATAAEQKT
Description: TNKS1 Assay 1 (TNKS1 Histone Ribosylation Assay Kit, biotin-labeled NAD+). The format is biochemical. As to conditions: chemiluminescent readout, 384 well. As for the experimental part:
The potency of the compounds according to the invention was assessed by applying an in vitro inhibition assay. The TNKS1 catalyzed NAD^+-dependent ribosylation of a suitable protein substrate was detected using a commercially available biotin/streptavidin binding based assay format [TNKS1 Histone Ribosylation Assay Kit (Biotin-labeled NAD+), Catalog #80579; BPS Bioscience, San Diego, USA]. Here, the incorporation of a biotin-labeled NAD+ during the TNKS1 catalyzed ribosylation reaction was detected with a streptavidin-HRP coupled chemi-luminescent readout. The intensity of the readout signal is proportional to the incorporated NAD^+. Inhibition of TNKS1 leads to a decreased incorporation of NAD^+ and consequently to a lower readout signal intensity. The concentration of a test compound which inhibits the enzyme activity by 50% (corresponds to half of the normed readout signal intensity) is reported as IC50.
The assay was conducted in a 384 well MTP format according to the manufacturer's protocol [bpsbioscience.com/poly-adp-ribose-polymerase/assay-kit/tnks1-histone-ribosylation-assay-kit-biotin-labeled-nad-80579 referencing: Brown, J. A., Marala, R. B. J. Pharmacol. Toxicol. Methods 2002 47:137-41] and using a BMG Pherastar MTP reader [BMG-Labtech, Offenburg, Germany].

Take `CNC(=O)c1nc[nH]c1C(=O)Nc1ccc(NC(=O)c2ccc(N(C)C)cc2Cl)cc1` [Example 4, N^5-(4-{[2-chloro-4-(dimethylamino)benzoyl]amino}phenyl)-N^4-methyl-1H-imidazole-4,5-dicarboxamide]: the IC50 reads like this: (Table 1) 120 nM; (first table) 120 nM.
Turning to `CNC(=O)c1nc[nH]c1C(=O)Nc1ccc(NC(=O)c2ccc(N3CCCC3)cc2F)cc1` [Example 3, N^5-(4-{[2-fluoro-4-(pyrrolidin-1-yl)benzoyl]amino}phenyl)-N^4-methyl-1H-imidazole-4,5-dicarboxamide], the IC50 (Table 1) is > 100000 nM.
With `CNC(=O)c1nc[nH]c1C(=O)Nc1ccc(NC(=O)c2cccc(Cl)c2Cl)cc1` [Example 1, N^5-{4-[(2,3-dichlorobenzoyl)amino]phenyl}-N^4-methyl-1H-imidazole-4,5-dicarboxamide], the IC50 by setting is: (Table 1) 1010 nM; (first table) 1010 nM.
Turning to `CNC(=O)c1nc[nH]c1C(=O)Nc1ccc(NC(=O)c2ccccc2Cl)cc1` [Example 27, N^5-{4-[(2-chlorobenzoyl)amino]phenyl}-N^4-methyl-1H-imidazole-4,5-dicarboxamide], the IC50 amounted to 100 nM (Table 1) and 100 nM (first table).
In the case of `CC(C)NC(=O)c1nc[nH]c1C(=O)Nc1ccc(NC(=O)c2ccc(F)cc2Cl)cc1` [Example 10, N^5-{4-[(2-chloro-4-fluorobenzoyl)amino]phenyl}-N^4-isopropyl-1H-imidazole-4,5-dicarboxamide], the IC50 reads like this: (Table 1) 310 nM; (first table) 310 nM.
Regarding `O=C(Nc1ccc(NC(=O)c2[nH]cnc2C(=O)NCC(F)(F)F)cc1)c1ccc(F)cc1Cl` [Example 30, N^4-{4-[(2-chloro-4-fluorobenzoyl)amino]phenyl}-N^5-(2,2,2-trifluoroethyl)-1H-imidazole-4,5-dicarboxamide], the IC50 by setting is: (Table 1) 140 nM; (first table) 140 nM.
Consider `CC(C)NC(=O)c1ncoc1C(=O)Nc1ccc(NC(=O)c2ccc(F)cc2Cl)cc1` [Example 15, N^5-{4-[(2-chloro-4-fluorobenzoyl)amino]phenyl}-N^4-isopropyl-1,3-oxazole-4,5-dicarboxamide], for which the IC50 reads like this: (Table 1) 900 nM; (first table) 900 nM.
Take `CNC(=O)c1nc[nH]c1C(=O)Nc1ccc(NC(=O)c2ccc(Cl)cc2Cl)cc1` [Example 9, N^5-{4-[(2,4-dichlorobenzoyl)amino]phenyl}-N^4-methyl-1H-imidazole-4,5-dicarboxamide]: the IC50 runs as follows: (Table 1) 110 nM; (first table) 110 nM.
`CCC(C)NC(=O)c1ncoc1C(=O)Nc1ccc(NC(=O)c2ccc(F)cc2Cl)cc1` (centres unmarked) [Example 7, N^4-sec-butyl-N^5-{4-[(2-chloro-4-fluorobenzoyl)amino]phenyl}-1,3-oxazole-4,5-dicarboxamide]: the half-inhibitory concentration (IC50) is, setting by setting: (Table 1) 1300 nM; (first table) 1300 nM.
For `CNC(=O)c1nc[nH]c1C(=O)Nc1ccc(NC(=O)c2ccc(F)cc2Cl)nc1` [Example 16, N^5-{6-[(2-chloro-4-fluorobenzoyl)amino]pyridin-3-yl}-N^4-methyl-1H-imidazole-4,5-dicarboxamide], the IC50 was 70 nM (Table 1) and 70 nM (first table).
Take `CNC(=O)c1nc[nH]c1C(=O)Nc1ccc(NC(=O)c2ccc(OCCN3CCN(C)CC3)cc2Cl)cc1` [Example 28, N^5-[4-({2-chloro-4-[2-(4-methylpiperazin-1-yl)ethoxy]benzoyl}amino)phenyl]-N^4-methyl-1H-imidazole-4,5-dicarboxamide]: the IC50 is, setting by setting: (Table 1) 70 nM; (first table) 70 nM.
In turn, `CNC(=O)c1nc[nH]c1C(=O)Nc1ccc(NC(=O)c2c(Cl)cccc2Cl)cc1` [Example 26, N^5-{4-[(2,6-dichlorobenzoyl)amino]phenyl}-N^4-methyl-1H-imidazole-4,5-dicarboxamide] showed an IC50 (Table 1) of 410 nM and an IC50 (first table) of 400 nM.
On to `CNC(=O)c1nc[nH]c1C(=O)Nc1ccc(NC(=O)c2ccc(F)cc2)cc1` [Example 20, N^5-{4-[(4-fluorobenzoyl)amino]phenyl}-N^4-methyl-1H-imidazole-4,5-dicarboxamide], for which the IC50 runs as follows: (Table 1) 1700 nM; (first table) 1700 nM.
Take `CNC(=O)c1nc[nH]c1C(=O)Nc1ccc(NC(=O)c2c(-c3ccccc3)nn(C)c2Cl)cc1` [Example 17, N^5-(4-{[(5-chloro-1-methyl-3-phenyl-1H-pyrazol-4-yl)carbonyl]amino}phenyl)-N^4-methyl-1H-imidazole-4,5-dicarboxamide]: the IC50 was > 100000 nM (Table 1) and ≥ 100000 nM (first table).
Regarding `COC(=O)c1ncoc1C(=O)Nc1ccc(NC(=O)c2ccc(F)cc2Cl)cc1` [Example 14, Methyl 5-({4-[(2-chloro-4-fluorobenzoyl)amino]phenyl}carbamoyl)-1,3-oxazole-4-carboxylate], the IC50 reads like this: (Table 1) 420 nM; (first table) 420 nM.
Regarding `CNC(=O)c1[nH]cnc1C(=O)Nc1ccc(NC(=O)c2cc(Cl)sc2Cl)cc1` [Example 213, N^4-(4-{[(2,5-dichloro-3-thienyl)carbonyl]amino}phenyl)-N^5-methyl-1H-imidazole-4,5-dicarboxamide], the IC50 (Table 1) is > 100000 nM.
With `CNC(=O)c1nc[nH]c1C(=O)Nc1ccc(NC(=O)c2c(C)cc(F)cc2C)cc1` [Example 23, N^5-{4-[(4-fluoro-2,6-dimethylbenzoyl)amino]phenyl}-N^4-methyl-1H-imidazole-4,5-dicarboxamide], the IC50 reads like this: (Table 1) 770 nM; (first table) 770 nM.
Regarding `CNC(=O)c1nc[nH]c1C(=O)Nc1ccc(NC(=O)c2ccccc2C)cc1` [Example 19, N^4-methyl-N^5-{4-[(2-methylbenzoyl)amino]phenyl}-1H-imidazole-4,5-dicarboxamide], the IC50 was 1700 nM (Table 1) and 1700 nM (first table).
Consider `CNC(=O)c1nc[nH]c1C(=O)Nc1ccc(NC(=O)c2ccncc2Cl)cc1` [Example 6, N^5-{4-[(3-chloroisonicotinoyl)amino]phenyl}-N^4-methyl-1H-imidazole-4,5-dicarboxamide], for which the concentration for half-maximal inhibition (IC50) is, setting by setting: (Table 1) 50 nM; (first table) 50 nM.
Take `CC(NC(=O)c1ncoc1C(=O)Nc1ccc(NC(=O)c2ccc(F)cc2Cl)cc1)c1ccccc1` (centres unmarked) [Example 8, N^5-{4-[(2-chloro-4-fluorobenzoyl)amino]phenyl}-N^4-(1-phenylethyl)-1,3-oxazole-4,5-dicarboxamide]: the IC50 is, setting by setting: (Table 1) 2270 nM; (first table) 2270 nM.
Take `CN(C)C(=O)c1nc[nH]c1C(=O)Nc1ccc(NC(=O)c2ccc(F)cc2Cl)cc1` [Example 24, N^5-{4-[(2-chloro-4-fluorobenzoyl)amino]phenyl}-N^4,N^4-dimethyl-1H-imidazole-4,5-dicarboxamide]: the IC50 runs as follows: (Table 1) 280 nM; (first table) 280 nM.
Consider `O=C(Nc1ccc(NC(=O)c2[nH]cnc2C(=O)NCc2ccccc2)cc1)c1ccc(F)cc1Cl` [Example 18, N^4-benzyl-N^5-{4-[(2-chloro-4-fluorobenzoyl)amino]phenyl}-1H-imidazole-4,5-dicarboxamide], for which the IC50 reads like this: (Table 1) 420 nM; (first table) 420 nM.
Take `CNC(=O)c1nc[nH]c1C(=O)Nc1ccc(NC(=O)c2ccc(F)cc2Cl)cc1` [Example 12, N^5-{4-[(2-chloro-4-fluorobenzoyl)amino]phenyl}-N^4-methyl-1H-imidazole-4,5-dicarboxamide]: the concentration for half-maximal inhibition (IC50) runs as follows: (Table 1) 20 nM; (first table) 20 nM.

The term IC50 denotes the concentration at which inhibition is half-maximal. High values mean weaker potency, low ones greater potency.

(Values after patent US9884063B2, “Amido-substituted azole compounds” (Bayer Pharma Aktiengesellschaft, priority 2014, dated 2018).)
